Test results: patent publication US20060019971A1, “Treatment of cardiovascular disease with inhibitors of p38 kinase” (priority 2003, published 2006)
“Also recorded” adds a separate entry of the source.

Columns and labels:
[1] = system: IL-8 secretion from HPBMCs; assay: IL-8 secretion from HPBMCs, ELISA; format: cell-based, human; settings: 1 μM SD pre-treatment, all the conditions (control, CRP, FCS, CRP plus FCS), 6 hours
Method: 8×10^5 HPBMCs were plated in 96-well. After 1 hour medium was removed and cells were incubated with or without 10 μg/ml of purified human CRP in serum-free RPMI 1640. In parallel experiments cells were treated with 10% FCS together with the CRP treatment. For the p38 antagonism, p38 inhibitor was added to a final concentration of 1 μM in the parallel treatment. After 6 hours conditioned medium were collected and IL-6 and IL-8 levels were determined by ELISA. […] 5×10^6 HPBMCs were plated in 6-well. After 1 hour medium was removed and cells were treated with vehicle or 1 μM p38 inhibitor in RPMI 1640 medium. After 1 hour cells were stimulated with 10% FCS only or 10 μg/ml CRP plus 10% FCS. After 2 hours RNA was extracted from the cells and IL-8 expression level was determined by real-time PCR as described in the Experimental section.
Cryopreserved human peripheral blood monocytes (HPBMCs, from Biowitker, Walkersvill, Md.) were thawed and washed twice in RPMI 1640. Cells were plated in tissue culture plates and incubated in 5% CO2 at 37 C. […]
Conditioned media from the treated cells were collected (6 to 20 hrs), and the level of secreted interleukin 6 (IL-6), interleukin 1 beta (IL-1 β), tumor necrosis factor alpha (TNFα), and interleukin 8 (IL-8) was determined by ELISA according to the manufacturer's instruction (Biosource International, Camarillo, Calif.). […]

[2] = system: ET-1 mRNA in HPBMCs; assay: ET-1 gene expression in HPBMCs, real-time PCR; format: cell-based, human; settings: 6 hours
Method: 5×10^6 HPBMCs were plated in 6-well. After 1 hour medium was removed and cells were treated with vehicle or 1 μM P38 INHIBITOR in RPMI 1640 medium. After 1 hour cells were stimulated with 10% FCS only or 10 μg/ml CRP plus 10% FCS. After 6 hours RNA was extracted from the cells and ET-1 gene expression level was determined by real-time PCR as described in the Experimental section.
Cryopreserved human peripheral blood monocytes (HPBMCs, from Biowitker, Walkersvill, Md.) were thawed and washed twice in RPMI 1640. Cells were plated in tissue culture plates and incubated in 5% CO2 at 37 C. After 1 hr media were removed and cells were treated with various treatments. After 2 to 20 hours conditioned media and/or cell lysates were collected for the analyses of secreted cytokines, protein or mRNA expression. 10 μg/ml of purified human CRP (Calbiochem, San Diego, Calif.) was used in most of the treatments. In some experiments fetal calf serum (FCS from ATCC) was added to a final concentration of 10% together with CRP. In the examples provided herein, including those assessing the effects of p38 antagonism, cells were pre-treated with SD, a p38 small molecule inhibitor (Compound 162 in Table A) for 1 hour prior to CRP treatment as described above. In a parallel series of experiments, the effect of vehicle (DMSO) was tested. For TaqMan analyses of various gene expression cells were lysed in ice-cold RLT lysis buffer (Qiagen, Valencia, Calif.) and the lysates were kept in −80° C. until the analyses. […]
RNA was extracted from the cells using Qiagen RNA extraction kit according to the manufacturer's instruction. The expression of pro-inflammatory genes IL-1β, IL-6, IL-8, TNFα, COX-2, ET-1, TF were assessed by real-time PCR. […]
Real-time RT-PCR was performed in a two-step manner. cDNA synthesis and real-time detection were carried out in a PTC-100™ Thermal Cycler (MJ Research Inc, Waltham, Mass.) and an ABI Prism™ 7700 Sequence Detection System (Applied Biosystems, Foster City, Calif.), respectively. […] Relative quantitation of gene expression was performed using the relative standard curve method. […]

Structure (SMILES): C[C@@H]1CN(Cc2ccc(F)cc2)[C@@H](C)CN1C(=O)c1cc2c(C(=O)C(=O)N(C)C)c[nH]c2cc1Cl [Compound 162]
- inhibition of IL-8 secretion [1]: almost completely inhibited
- inhibition of CRP-invoked ET-1 mRNA expression ([2]; 1 μM SD pre-treatment, listed as SD): almost completely blocked; also recorded: almost completely inhibited
- inhibition of FCS induced ET-1 mRNA ([2]; 1 μM SD): completely inhibited
